Laboratory results taken from patent US20040001839A1, “Multimers - isolated molecules comprising epitopes containing sulfated moieties, antibodies to such epitopes, and uses thereof” (priority 2000, published 2004).
Values belong to the molecule of their own block, whether it stands above or below them. No end group written: not given here. *: point of attachment. sulfate = O=S(=O)(O)*

Columns and labels:
[1] = tested on: scFv Y1 binding to glycocalicin; assay: Competitive binding ELISA of sulfated peptides (scFv Y1 binding to immobilized glycocalicin); design: species or system human; conditions: peptide 1, 10 and 100 μM, preincubated 10 minutes with scFv Y1
Method: A competitive binding ELISA assay was used to assess the importance of the presence and position of sulfated tyrosines to the binding of peptides to Y1.
Glycocalicin was immobilized on a Maxisorb plate. scFv Y1 was preincubated with a peptide of interest for 10 minutes at three different concentrations (1, 10 and 100 μM) in order to observe a dose response. (Table 12). After preincubation, the mixture (Y1+peptide) was added to the plate, and binding of scFv Y1 was assessed using polyclonal rabbit anti-VL, which recognizes the VL chain of scFv Y1, followed by anti-rabbit-HRP. In mixtures in which the peptide bound to scFv Y1, a decrease in the binding of scFv Y1 to glycocalicin compared to control binding was observed.

KG-1 cells = assay: AML KG-1 model in NOD/SCID mice; assay type: in vivo
Method: The in vivo mouse model for human AML uses SCID/NOD mice (Jackson Laboratories) inoculated with KG-1 cells derived from a human AML cell line.
In a first experiment, NOD/SCID mice were pretreated with 100 mg/kg CYTOXAN®. Four days post CYTOXAN® injection, KG-1 cells were injected intravenously into the tail vein of six groups of mice. (Table N, Groups 2 and 5-9). One group of mice (Table N, Group 1) was injected with PBS alone (control). [273.][273.]
Beginning 19 days post KG-1 injection mice were treated with: CONY1, Doxorubicin, CONY1-Doxorubicin conjugate, or Mylotarg®. (Mylotarg® is a monoclonal antibody (anti CD33) conjugated chemically to calcheamicin recently approved by the FDA for treatment of AML patients age 60 and over in a first relapse.) Mice were treated once or three times per week for three weeks. One group (group 2) of KG-1 inoculated mice were left untreated. (Table N). Two other groups of mice (groups 3 and 4) were injected with KG-1 cells that were previously incubated with CONY1 or 181-scFv (a negative, non-specific control antibody) in serum free RPMI containing 1% BSA at 4° C. for 1 h. The antibodies were used at a concentration of 0.25 mg scFv/10^8 cells (75 μg/mouse). Before injection into the mice the preincubated KG-1 cells were washed and resuspended in RPMI. The KG-1 cells in RPMI were inoculated into mice at a concentration of 75 μg scFv/0.2 ml RPMI per mouse. Group 3 mice were inoculated with KG-1+CONY1, and group 4 mice were inoculated with KG-1+181-scFv. (Table N). This treatment (group 3 and 4) was carried out one day after the inoculation of groups 1-2 and 5-9, i.e., at five days after CYTOXAN injection.
Mice were sacrificed from 60 to 65 days post cell injection. Bone marrow and blood samples were analyzed by flow cytometry using mouse anti human CD34-FITC (IQP 144F) (or anti CD44-FITC (MCA89F, Serotec)) and Y1-Biotin/SAV-PE. Mouse IgG1-FITC (IQP 191-F) was used as an isotype control, and mouse IgG2a-FITC (MCA929F, Serotec) was used as a negative control. Flow cytometry was performed using FACSCalibur system and CellQwest software, Becton Dickinson.
An additional experiment was performed in which SCID-NOD mice were i.v. injected with 3×10^4 MOLT-4 cells/mouse 5 days post treatment with cyclophosphamide. Anti-cancer agents or PBS were injected IV three times/week, from day 14 onward. On day 60, blood was drawn, then the animals were sacrificed. Bone marrow was extracted and analyzed by FACS analysis using a commercially available antiCD44 antibody for the detection of MOLT-4 cells in the mice bone marrow cell population.

inhibition of Y1 binding to glycocalicin [1]: best inhibitors
Molecule: QATEYEY*LDY*DFLPETE (QATEYEY(sulfate)LDY(sulfate)DFLPETE) [P-YY*Y*, PSGL-1 n-terminus peptide, sulfated]

Molecule: COc1cccc2c1C(=O)c1c(O)c3c(c(O)c1C2=O)C[C@@](O)(C(=O)CO)C[C@@H]3O[C@H]1C[C@H](N)[C@H](O)[C@H](C)O1 [Doxorubicin]
percentage of KG-1 cells in bone marrow compared to group 2 (untreated) (KG-1 cells; 0.1 mg/kg free Doxorubicin, 3 times per week (group 6)): statistically significant (p<0.05) lower percentage of KG-1 cells
mice that died within three weeks after treatment initiation (KG-1 cells; 5 mg/kg free Doxorubicin, 1 time per week (group 7)): Nine out of 10
reduction in the number of tumor cells in the bone marrow (KG-1 cells; additional experiment, day 60, Doxorubicin alone or as conjugate 75 μg/mouse): 50%

inhibition of Y1 binding to glycocalicin [1]: did inhibit
Molecule: GDEGDTDLY*DY*Y*PEEDTE (GDEGDTDLY(sulfate)DY(sulfate)Y(sulfate)PEEDTE) [G-Y*Y*Y*, GPIbα peptide, sulfated]

Molecule: Mylotarg: monoclonal antibody (anti CD33) conjugated chemically to calcheamicin
KG-1 cells in bone marrow (KG-1 cells; 0.2 mg/kg, 1 time per week (group 9)): free of KG 1 cells
prevalence of bone marrow cancer, day 60 (KG-1 cells; additional experiment, 7 μg/mouse, once a week): completely inhibited
